Measurements reported in patent publication US20120094939A1, “ANTI-VIRAL COMPOUNDS, COMPOSITIONS AND METHODS” (priority 2007, published 2012).
Read-outs that look alike come from different tables or passages of the source.

Assays:
[1] = tested on: Huh7/Rep-Feo HCV replicon (HCV RNA replication); format: cell-based, Hepatitis C virus (strain HCV—N, genotype 1b)
Excerpt: Development of the Huh7/Rep-Feo replicon assay. […] This replicon was derived from a chimpanzee infectious clone (strain HCV—N, genotype 1b). In this replicon, the structural genes have been replaced by a reporter gene. The chimeric reporter gene Feo encodes the firefly luciferase protein fused in-frame with neomycin phosphotransferase. This Huh7/Rep-Feo cell supports high levels of autonomous HCV RNA replication because it was derived from the HCV—N strain, which carries an adaptive mutation in NSSA that confers highlevel replication in tissue culture. Furthermore, the level of luciferase correlates well with levels of HCV RNA production, so that luciferase can be used as a reliable surrogate marker for HCV replication. The use of luciferase as a reporter permits quantitative and highthroughput detection of HCV replication levels. The specific use of firefly luciferase makes this replicon especially well-suited for automation, because the luciferase reagent can be added directly to the cell culture system prior to signal detection without the need for cell lysis, washing, or aspiration.
HCV Replicon System-Primary Screening. […] Briefly, this replicon harbors a subgenomic HCV genotype 1b sequence, fused to firefly luciferase, stably replicating under neomycin selection. Cells were propagated in Dulbecco's Modified Eagle's medium (DMEM) containing 10% fetal bovine serum (FBS) supplemented with 1% penicillin-streptomycin, and 500 μg of Geneticin (Invitrogen Corp., Carlsbad, Calif.)/mL. Cells were cultured in a 37° C., 5% CO2-humidified incubator for all experiments. To decrease day-today variability in the assay, a large homogenous population of subconfluent cells was passaged so that a similar lot of cells could be used throughout the HTS assay.
Primary Screening-HTS. Information about the library of known bioactive compounds that was screened and the general automated HTS protocol is available at http://www.broad.harvard.edu/chembio/index.html (see FIG. 10 for list of primary HTS with known bioactives library). Based on the results of optimization experiments in the 384-well plate format, the general HTS protocol was adapted as follows. Unless otherwise indicated, cells were incubated at all times in a humidified environment with 5% CO2 at 37° C. The assay was initiated by plating 30 μL of medium containing 2000 cells/well into white 384-well opaque-bottom plates (Nunc, Rochester, N.Y.) using an automated plate filler (Bio-Tek uFiller; Winsooki, Vt.) and allowing the cells to adhere for 24 hours. One hundred nL of compound stock solutions in DMSO was transferred from stock plates into the 384-well assay plates using an automated pin-based compound transfer robot (CyBio CyBi-Well vario; Woburn, Mass.). The final compound concentration in each well was estimated to be approximately 10-50 μM, with most compounds at 33 μM. The wells contained 0.33% DMSO by volume. The cells were then incubated for another 48 hours. The luminescent signal from each plate was detected using an automated plate reader (Perkin-Elmer Envision 1; Wellesley, Mass.). This screen was performed in duplicate. For negative controls, entire DMSO-treated control plates were employed, in addition to DMSO-only control wells that were incorporated into each compound assay plate. The cells were assayed for luciferase activity using the Bright-Glo Luciferase assay system (Promega), following the manufacturer's instructions. As a counter-screen, cell viability was assessed using the CellTiterGlo Luminescent cell viability assay (Promega) following the manufacturer's instructions.
Computational Data Analysis-Primary Screening. For each replicate, a mock-treatment distribution based on the total population of mock (DMSO) controls in that replicate was built (FIG. 11).

[2] = tested on: OR6 cells harboring full-length genotype 1b HCV replicon ORN/C-5B/KE (HCV RNA replication); assay: microbe, parasite or virus in culture; format: cell-based, Hepatitis C virus (strain HCV—O; conditions: 48 hours; for antiviral activity (in words): OR6 full-length replicon
Excerpt: (§1) HCV Replicon System-Secondary Assays. For validation, OR6 cells stably harboring the full-length genotype 1 replicon, ORN/C-5B/KE9 were used to examine compound activity in a more authentic viral polyprotein context. This replicon was derived from the 1B-2 strain (strain HCV—O, genotype 1b), in which the Renilla luciferase gene is introduced as a fusion protein with neomycin to facilitate the monitoring of HCV replication. This construct contains a tissue culture adaptive mutation in the NS3 region. Cells were cultured in an identical manner to the Huh7/Rep-Feo cells.
(§2) Secondary Assays-Hit Validation. Several hits from primary HTS, as well as functionally related compounds, were purchased from Sigma (St. Louis, Mo.), Calbiochem (San Diego, Calif.), and Microsource (Gaylordsville, Conn.). […] Ten mM of stock solutions of the individual compounds to be tested was prepared in the appropriate solvent (DMSO, ethanol, or H2O, according to the manufacturer's information) and stored at −20° C. Cells were seeded into 96-well plates at a density of 2000 cells/well in 100 μL of medium. The cells were incubated for 24 hours at 37° C. to obtain the optimal level of adherence. Solutions of candidate hit compounds were added to wells to achieve final concentrations of 0.1, 1, 10, 50, and 100 μM. The final concentration of DMSO or ethanol in every well was 1% or less by volume. Mock solutions were used as a negative control. PEG-IFN and ribavirin were used as positive controls at various concentrations, alone and in combination. The plates were then incubated at 37° C. with 5% CO2 for 48 hours before they were analyzed. Luminescent signal was generated using the Renilla luciferase assay kit (Promega) according to the manufacturer's instructions. Signal was then detected using a LumiCount (Packard BioScience Company) luminometer. Cell viability was assessed using CellTiter-Glo (Promega), following the manufacturer's instructions. All experiments were performed in triplicate.
(§3) Secondary Assays-Data Analysis. Values were presented as a percentage of mock treated control, which was arbitrarily set at 100%. Data were expressed as the mean (±) SD. […] Synergy calculations were performed using CalcuSyn (Biosoft; Cambridge, England).
as §1, with “System—Secondary Assays:” for “System-Secondary Assays.”, “For replicon” for “For”, “ORN/C-5B/KE” for “ORN/C-5B/KE9”, “(Burke J. Am. Chem. Soc. (2004) 126:14095-14104).” for “to examine compound activity in a more authentic viral polyprotein context.”, “the Neomycin resistance cassette” for “neomycin”
(§4) Secondary Assays—Hit Validation: 10 mM of stock solutions of the individual compounds to be tested were prepared in DMSO and stored at −20° C. Cells were seeded into 96-well plates at a density of 2,000 cells/well in 100 μl of medium. The cells were incubated for 24 hours at 37° C. to obtain the optimal level of adherence. Solutions of candidate hit compounds were added to wells to achieve varying final concentrations between 0.01 and 100 μM. The final concentration of DMSO or ethanol in every well was 1% or less by volume. Mock solutions were used as a negative control. Peginterferon-alfa-2b (PEG-Intron; Schering Corp.; Kenilworth, N.J.) and ribavirin (Sigma; St. Louis, Mo.) were used as positive controls at various concentrations, alone and in combination. The plates were then incubated at 37° C. with 5% CO2 for 48 hours before they were analyzed. Luminescent signal was generated using the Renilla luciferase assay kit (Promega; Madison, Wis.) according to the manufacturer's instructions. Signal was then detected using a LumiCount™ (Packard BioScience Company; Downers Grove, Ill.) luminometer.

[3] = tested on: OR6 cells; assay: Secondary assay cell viability (CellTiter-Glo); conditions: 48 hours
Description: as §2, §3
as §4, with “luminometer. Cell viability was assessed using CellTiter-Glo (Promega; Madison, Wis.), following the manufacturer's instructions. All experiments were performed in triplicate. Values were presented as a percentage of mock treated control, which was arbitrarily set at 100%. Data were expressed as the mean±SD.” for “luminometer.”
Secondary Assays—Data Analysis: Values were presented as a percentage of mock treated control, which was arbitrarily set at 100%. Data were expressed as the mean±SD.

[4] = tested on: Huh7/Rep-Feo HCV replicon; assay: Optimization of Huh7/Rep-Feo cells for 96-/384-well plates with PEG-IFN as positive control; format: cell-based, Hepatitis C virus (strain HCV—N, genotype 1b); conditions: 96-well plates; measurements at 24, 48, 72 hours
Description: Optimization of Huh-7/Rep-Feo Cells for the 384-Well Plate Format. The Huh7/Rep-Feo cells were first optimized for the 96-well plate format (FIG. 9). […] Cells were seeded at densities of 5000 and 10,000 cells/well in 100_L of medium in 96-well plates. The cells were allowed to attach overnight (approximately 24 hours) before addition of PEG-IFN at various concentrations (day 0). The plates were then incubated further, and measurements were taken at 24, 48, and 72 hours. At each time point, the plates were equilibrated at room temperature, an equal volume of Bright-Glo reagent (Promega, Madison, Wis.) was added, and the plates were read in a LumiCount (Packard BioScience Company, Downers Grove, Ill.) luminometer. […] Results were expressed as the mean of three replicate wells. […]
Optimization of Huh-7/Rep-Feo cells for the 384-well plate format: Cells were propagated in Dulbecco's Modified Eagle's medium (DMEM) containing 10% fetal bovine serum (FBS) supplemented with 1% penicillin-streptomycin, and 500 μg of Geneticin (Invitrogen Corp., Carlsbad, Calif.)/ml. […] At each time point, the plates were equilibrated at room temperature, an equal volume of Bright-Glo reagent (Promega, Madison, Wis.) was added, and the plates were read in a LumiCount™ (Packard BioScience Company, Downers Grove, Ill.) luminometer. […] Results were expressed as the mean of three replicate wells. […]

Row | Compound | antiviral activity (in words) [2] | cytotoxicity (in words) [3] | also measured
1 | Clc1cccc(Nc2nnc(-c3ccccc3)c3ccccc23)c1 [MY-5445] | decreased the luciferase signal in a dose-related manner | significant cytotoxicity | primary screen hit result (in words) ([1]; known bioactives library, approximately 10-50 μM, most at 33 μM): Antiviral
2 | CC[C@H](C)C(=O)O[C@H]1CCC=C2C=C[C@H](C)[C@H](CC[C@@H]3C[C@@H](O)CC(=O)O3)[C@H]21 [Mevastatin, mevastatin] | weakly inhibitory | not cytotoxic | 
3 | C[S+]([O-])c1ccc(-c2nc(-c3ccncc3)c(-c3ccc(F)cc3)[nH]2)cc1 (centres unmarked) [SB 203580] | antiviral activity at a concentration of 10 μM | cytotoxicity at higher concentrations | primary screen hit result (in words) [1]: Antiviral
4 | O=C1[C@@]2(CO)C=C(I)C(CC2c2ccccc2)[C@@]12CO2 (some centres unmarked) [SM_A14B5] |  |  | IC50 ([2]; Hepatitis C virus, OR6, 48 h, read-out: IC50 (HCV RNA replication, luciferase), OR6 full-length genotype 1b replicon): ~3.5 µM; concentrations at which cytotoxic effects were exhibited [3]: above 30 μM
5 | Peginterferon-alfa-2b [PEG-IFN] |  |  | antiviral activity over time (in words) [4]: progressively increased over time
